What is called MIC is the lowest concentration found to suppress growth.

For the assay, the system named is Staphylococcus aureus CIP52.1. Briefly: Minimum inhibitory concentration (MIC), NCCLS dilution antimicrobial susceptibility test. The assay is classed as cell-based. From the text: The bacterium Staphylococcus aureus CIP52.1 may be used in order to determine for each test compound the minimum inhibitory concentration for the bacterium, or MIC, expressed in μM.
The technique employed to determine the minimum inhibitory concentration or MIC was that described in the publication entitled “National committee for clinical laboratory standards” Vol. 13, No. 25, December 1993; Methods for dilution antimicrobial susceptibility tests for bacteria that grow aerobically-third edition, approved standard”. This minimum inhibitory concentration gives an indication as to the bacteriostatic effect of the test compounds, i.e., the capacity of these compounds to stop the proliferation of the bacterium.
Each compound of the invention was tested at least three times. The average of the test results was calculated, along with the standard deviation. The reference compound used was gentamycin.
The technique employed to determine the MIC values was the same as that described in Example 1.
Each compound of the invention and each comparative example taken from the Pierre Fabre patent application No. FR-2,736,548 was tested at least three times. The mean of the test results was calculated, along with the standard deviation. The reference compound used was gentamycin.

Setting [1] is: Staphylococcus aureus, CIP52, Table II, Example 1, mean of at least three tests, bacteriostatic effect, read-out: MIC RESULTS MEAN.
Setting [2] is: Table II, Example 1, mean of at least three tests, bacteriostatic effect, read-out: MIC RESULTS MEAN.

≈ marks a conversion by molar mass, not a printed value. Read-outs that look alike come from different tables or passages of the source.

Regarding `Cc1cc(O)c(C23CC4CC(CC(C4)C2)C3)cc1-c1ccc2cc(C(=O)O)ccc2c1` [Compound 4, 6-[2-Methyl-4-hydroxy-5-(1-adamantyl)phenyl]-2-naphthoic acid], under setting [1], the MIC was determined as 1.25 µM (≈ 0.516 µg/mL).

Take `Cc1ccc(-c2ccccc2C=CC#Cc2ccc(C(=O)O)c(O)c2)cc1` [Compound 6, 2-Hydroxy-4-[4-(4′-methylbiphenyl-2-yl)but-3-en-1-ynyl]benzoic acid]: under setting [1], the MIC was determined as 1.25 µM (≈ 0.443 µg/mL).

Regarding `Cc1ccc(-c2ccc(C)cc2C=CC#Cc2ccc(C(=O)O)cc2)cc1` [Compound 8, 4-[4-(4,4′-Dimethylbiphenyl-2-yl)but-3-en-1-ynyl]benzoic acid], under setting [1], the MIC came out at 1.66 µM (≈ 0.585 µg/mL).

Take `Cc1ccc(-c2c(C)cccc2C=CC#Cc2ccc(C(=O)O)cc2)cc1` [Compound 12, 4-[4-(6,4′-Dimethylbiphenyl-2-yl)but-3-en-1-ynyl]benzoic acid]: the MIC under setting [1] came out at 2.08 µM (≈ 0.733 µg/mL).

Take `CCCCCCCCCON=C(C(=O)Nc1ccc(C(=O)O)cc1)c1ccc2c(c1)C(C)(C)CCC2(C)C` [Compound 17, 4-[2-Nonyloxyimino-2-(5,5,8,8-tetramethyl-5,6,7,8-tetrahydronaphthalen-2-yl)acetylamino]benzoic acid]: the MIC under setting [1] stood at 2.5 µM (≈ 1.3 µg/mL).

For `COCCOCOc1ccc(C#Cc2ccc(C(=O)O)c(O)c2)cc1C12CC3CC(CC(C3)C1)C2` [Compound 18, 4-[3-Adamantan-1-yl-4-(2-methoxyethoxymethoxy)-phenylethynyl]-2-hydroxybenzoic acid], the minimum inhibitory concentration (MIC) under setting [1] amounted to 2.5 µM (≈ 1.19 µg/mL).

As for `CC(CO)COc1ccc(C#Cc2ccc(C(=O)O)cc2)cc1C12CC3CC(CC(C3)C1)C2` (stereo not shown) [Compound 19, 4-[[3-(1-Adamantyl)-4-[(2-methyl-3-hydroxypropyloxy)phenyl]ethynyl]]benzoic acid], under setting [2], the minimal inhibitory concentration (MIC) amounted to 2.50 µM (≈ 1.11 µg/mL).

On to `CC1(C)CCC(C)(C)c2cc3cc(-c4ccc(CO)c(O)c4)ccc3cc21` [Compound 20, 2-Hydroxymethyl-5-(5,5,8,8-tetramethyl-5,6,7,8-tetrahydroanthracen-2-yl)phenol], for which the MIC under setting [1] is 2.5 µM (≈ 0.901 µg/mL).

As for `Cc1cc2c(cc1[Se]C#Cc1ccc(C(=O)O)c(O)c1)C(C)(C)CCC2(C)C` [Compound 22, 2-Hydroxy-4-(3,5,5,8,8-pentamethyl-5,6,7,8-tetrahydronaphthalen-2-ylselanylethynyl)benzoic acid], where the note is “Staphylococcus aureus, CIP52, read-out: MIC RESULTS MEAN”, the MIC is 2.5 µM (≈ 1.1 µg/mL).

As to `COc1cc2c(cc1-c1cc(-c3ccc(C(=O)O)cc3)ccc1-c1ccccc1)C(C)(C)CCC2(C)C` [Compound 23, 2′-(3-Methoxy-5,5,8,8-tetramethyl-5,6,7,8-tetrahydronaphthalen-2-yl) [1,1′,4′,1″]terphenyl-4″-carboxylic acid], the MIC under setting [2] was found to be 2.50 µM (≈ 1.23 µg/mL).

On to `CCCCOC(c1ccc2c(c1)C(C)(C)CCC2(C)C)c1ccc2cc(C(=O)O)ccc2c1` (stereo not shown) [Compound 24, 6-[Butoxy-(5,5,8,8-tetramethyl-5,6,7,8-tetrahydronaphthalen-2-yl)methyl]naphthalene-2-carboxylic acid], for which the MIC under setting [1] worked out at 3.33 µM (≈ 1.48 µg/mL).

For the molecule `CCCCCCCCCC(C)(C)c1cc(C(=O)Nc2ccc(C(=O)O)cc2)ccc1OC` [Compound 25, 4-[3-(1,1-Dimethyldecyl)-4-methoxybenzoylamino]-benzoic acid], the MIC under setting [1] is 3.33 µM (≈ 1.46 µg/mL).

Consider `CCCCCCOc1ccc(C(=O)Nc2ccc(C(=O)O)cc2)cc1C12CC3CC(CC(C3)C1)C2` [Compound 26, 4-(3-Adamantan-1-yl-4-hexyloxybenzoylamino)benzoic acid], for which the MIC under setting [1] came to 3.33 µM (≈ 1.58 µg/mL).

For `OCc1ccc2cc(-c3ccc(O)c(C45CC6CC(CC(C6)C4)C5)c3)ccc2c1` [Compound 27, 6-[3-(1-Adamantyl)-4-hydroxyphenyl]-2-napthylmethanol], the MIC under setting [2] amounted to 3.33 µM (≈ 1.28 µg/mL).

On to `CC1(C)CCC(C)(C)c2cc3cc(-c4ccc(C(=O)O)c(O)c4)ccc3cc21` [Compound 28, 2-Hydroxy-4-(5,5,8,8-tetramethyl-5,6,7,8-tetrahydroanthracen-2-yl)benzoic acid], for which the MIC under setting [1] turned out to be 3.33 µM (≈ 1.25 µg/mL).

Regarding `O=C(O)c1ccc2oc(-c3ccc(O)c(C45CC6CC(CC(C6)C4)C5)c3)cc2c1` [Compound 29, 2-(3-Adamantan-1-yl-4-hydroxyphenyl)benzofuran-5-carboxylic acid], under setting [1], the minimum inhibitory concentration (MIC) stood at 3.33 µM (≈ 1.29 µg/mL).

(Values after US6858647B2, “Retinoid compounds suited for antibacterial applications” (Galderma Research & Development S.N.C., priority 2000, dated 2005).)
